{"source": "patent US12036190B2", "about": "“Methods and compositions for the treatment of cytoplasmic glycogen storage disorders” (Duke University, priority 2015, dated 2024)", "key": {"[1]": {"system": "autophagy", "conditions": "Table 4; drugs known to enhance autophagy; cited from earlier work"}, "[2]": {"system": "G6pc knockdown AML-12 cells", "assay": "LC3 Western blot of drug-treated G6pc knockdown AML-12 cells", "assay_type": "cell-based, mouse", "conditions": "24 hours; conditions with optimal effects in the Oil Red O screen", "experimental": "FIG. 27 illustrates LC3 Western blot of drug-treated G6pc knockdown AML-12 cells. Western blotting was performed on AML-12 cells incubated for 24 hours with the described drug conditions. LC3 was quantified and normalized against each condition's β-actin protein quantification.\nIn addition to Oil Red O staining, cells were analyzed via Western blots for restored LC3 expression for each drug, under the conditions that had optimal effects in the Oil Red O screen (FIG. 27). Since the Western antibody previously used successfully for rapamycin treatment LC3 blots had been discontinued by the manufacturer, we tested two alternative antibodies and chose the one from Cell Signaling Technologies because it gave the strongest signal-to-noise ratio under our experimental conditions.\nWestern blotting was performed on AML-12 cells incubated for 24 hours with the described drug conditions. LC3 was quantified and normalized against each condition's β-actin protein quantification."}, "[3]": {"conditions": "in vivo extracellular fluid concentration; cited from earlier work"}, "[4]": {"system": "G6pc siRNA knockdown AML-12 cells", "conditions": "Oil Red O, duplicate", "from_the_text": "In brief, a wide array of drugs was selected, including those that modulate autophagy via the […] pathway, those that do so through AMPK modulation to act through mTORC1, and those using yet-undetermined pathways. Analysis of additional literature led to the selection of three concentrations of each compound to be tested in cell culture using the G6pc siRNA knockdown AML-12 mouse hepatocyte cell line model of GSD Ia as an initial screen for the drugs.\nDrug concentrations were chosen based on similarity to published concentrations in either cell culture models resulting in target effects or autophagy, or in vivo extracellular fluid concentrations following animal treatments. The latter case is noted with the fluid type. Concentrations used in our in vitro AML-12 cell culture treatments are listed as the low, medium, and high concentrations that were screened.\nThe first test using AML-12 cells was the Oil Red 0 stain to examine the presence of lipid vacuoles in cells given the treatments.\nG6pc siRNA knockdown AML-12 cells were given three different doses of each drug treatment. After 72 hours of growth, the media was changed to ketogenic media and appropriate quantities of each drug were added. This was performed in duplicate. Oil Red 0 staining was then performed and bright field images acquired at 10× magnification.\nDrug treatments at three doses each were performed on G6pc siRNA knockdown AML-12 cells. Following oil red 0 staining the whole plates were evaluated visually for reductions in lipid accumulation. Treatments were performed in duplicate. —/0/+/++/+++ indicates the degree of improvement, or lipid reduction, caused by the treatment, with + indicating positive benefits."}}}
{"smiles": "NC(=O)N1c2ccccc2C=Cc2ccccc21", "note": "[Carbamazepine]", "values": [{"measurement": "Effect", "setting": "[1]", "value": "Activated autophagy, reduced hepatosteatosis"}, {"measurement": "LC3 normalized against β-actin (Western blot)", "setting": "[2]", "value": "increase in LC3 autophagic marker"}, {"measurement": "Published Concentration, cerebrospinal fluid", "setting": "[3]", "value": "0.7 to 1.5", "unit": "µg/mL"}, {"measurement": "Lipid Reduction Scoring, High dose", "setting": "[4]; high concentration of Table 6", "value": 0}, {"measurement": "Lipid Reduction Scoring, Low dose", "setting": "[4]; low concentration of Table 6", "value": "+++"}, {"measurement": "Lipid Reduction Scoring, Medium dose", "setting": "[4]; medium concentration of Table 6", "value": "+"}]}
